Here are results for seven compounds from US10927107B2, “Phenyl [a]indole[2,3-g]quinolizine compounds, preparation method therefor, pharmaceutical composition, and applications thereof” (Shanghai Institute of Materia Medica, Chinese Academy of …, priority 2016, dated 2021).

pIC50: −log10 of the molar value. Like-named read-outs stand apart in the source and are kept apart here.

Data set [1] has as its target T1, α1A-adrenergic receptor (α1A-AR) (Homo sapiens, UniProt P35348).
T1 construct: expressed in transfected cells; host or cells: HEK293
T1 sequence (P35348 1-466): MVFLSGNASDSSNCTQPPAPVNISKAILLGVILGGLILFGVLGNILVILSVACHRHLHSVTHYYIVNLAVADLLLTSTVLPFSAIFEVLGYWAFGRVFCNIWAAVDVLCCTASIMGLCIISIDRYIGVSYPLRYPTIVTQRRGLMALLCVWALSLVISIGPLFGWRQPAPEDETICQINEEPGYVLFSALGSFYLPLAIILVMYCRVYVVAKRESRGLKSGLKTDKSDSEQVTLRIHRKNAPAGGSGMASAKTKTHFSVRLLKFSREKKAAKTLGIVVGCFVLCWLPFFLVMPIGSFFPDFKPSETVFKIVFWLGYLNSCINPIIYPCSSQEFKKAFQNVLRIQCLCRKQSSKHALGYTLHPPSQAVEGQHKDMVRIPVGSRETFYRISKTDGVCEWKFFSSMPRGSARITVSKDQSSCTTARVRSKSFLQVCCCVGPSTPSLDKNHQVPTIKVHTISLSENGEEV
In words: Antagonistic activity on α1A-AR: calcium fluorescence in HEK293 cells stimulated with phenylephrine. It counts as cell-based. The method, then:
HEK293 cells stably expressing α1A-adrenergic receptor (α1A-AR) and G protein […] were seeded in 96-well plates. After 24 hours of culture, the medium was removed, and 40 μL of Hank's balanced salt solution (HBSS: containing 5.4 mM KCl, 0.3 mM Na2HPO4, 0.4 mM KH2PO4, 4.2 mM NaHCO3, 1.3 mM CaCl2, 0.5 mM MgCl2, 0.6 mM MgSO4, 137 mM NaCl, 5.6 mM D-glucose and 250 μM sulfinpyridone, pH 7.4) containing 2 μM of MFluo-4AM was added to each well, and incubated for 45 minutes in an incubator. The dye was aspirated and 50 μL of HBSS containing a test compound or 1% DMSO (negative control) was added and incubated for 10 minutes at room temperature, and then read with Flex Station 3 microplate reader. At the specified time point, 25 μL of agonist phenylephrine (final concentration 30 nM) will be automatically added by the detector into the reaction system, and simultaneously stimulated with 485 nm light, and the change in intensity of fluorescence caused by the change in the intracellular calcium ion concentration was detected at 525 nm. […] The response rate of different doses of the same drug was analyzed by GraphPad Prism software to obtain a dose-response curve and the IC50 value was measured. Each experiment was performed in […].

The subject of a further data set is HepG2 cells. In words: In vitro lipid-lowering activity: DiI-LDL uptake in HepG2 cells. It counts as cell-based. To be noted: Homo sapiens, test compound 5 uM, 24 h, DiI-LDL 20 ug/ml, 3 h, FLU of sample group/FLU of blank group x100%, read-out: LDL uptake rate. The method, then:
HepG2 cells were inoculated in 24-well plates, cultured in DMEM containing 10% FBS for 24 h or 48 h, and then transferred to DMEM containing 2% defatted serum and cultivated for 24 h. The old culture solution was discarded and replaced with new 2% defatted serum DMEM, and a test compound (the working concentration of which is 5 uM, triplicate for each sample) was added and incubated for 24 h. The old culture solution was abandoned and DMEM containing DiI-LDL (20 ug/ml) was added (300 ul/per 24 wells), incubated for 3 h. DMEM containing DiI-LDL was discarded, and cells were rinsed twice with PBS containing 0.4% BSA, and 3 times with PBS to remove excess DiI-LDL. Isopropanol was added (500 ul/per well of a 24-well plate), and was kept in darkness. After shaken for 20 minutes, 200 ul of supernatant was sucked to a black fluorescent plate, and fluorescence intensity (FLU) was detected at excitation light 520 nm and emission light 578 nm. The experimental results were calculated: LDL uptake rate=(FLU value of sample group to be tested/FLU value of blank group)×100%.

The subject of data set [2] is Syrian golden hamsters (high-fat diet, hyperlipidemia model). In words: In vivo lipid-lowering activity in high-fat diet golden hamsters. Also on record: species or system Syrian golden hamster. Conditions: for CHOL / HDL-C / LDL-C / TG: high-fat diet, serum. The method, then: After adaptively feeding Syrian golden hamsters (male, 80-100 g) for a week, all hamsters were fed with high-fat diet. Two weeks later, blood was collected from the orbital venous plexus, serum was separated, and levels of total cholesterol (TC), triglyceride (TG), high-density lipoprotein (HDL-C) and low-density lipoprotein (LDL-C) in serum were measured. They were evenly grouped according to blood lipid levels into […]: model control group, A1 intragastric administration group, A1 intraperitoneal administration group, A5 intragastric administration group, A5 intraperitoneal administration group, A55 intragastric administration group, A55 intraperitoneal administration group, B5 intragastric administration group, B5 intraperitoneal administration group, and the animals in each group were continued to be administered with high fat diet. […] […] Blood lipid levels and body weights were measured every 10 days. After three weeks, the animals were sacrificed and the liver was stored in a −80° C. refrigerator.

Data set [3] can be described thus: Rat pharmacokinetics. It counts as in vivo. On the set-up: AUC(0-t) / AUC(0-inf): concentration or dose not given beside the values. To be noted: in vivo; for AUC(0-inf): read-out: AUCINF—obs; for MRT inf: read-out: MRTINF—obs. As to the method:
A1 10 μL of a plasma sample was taken in a centrifuge tube and 100 μL of methanol:acetonitrile (1:1, v/v) was added, vortexed for 1 min, centrifugated (14000 rpm) for 5 min, and 50 μL supernatant was taken, mixed with equal volume of water, and analysised after vortex mixing. The linear range of A1 is: 0.1-300 ng/mL for oral administration and 1-3000 ng/mL for intravenous injection.
A55 10 μL of a plasma sample was taken in a centrifuge tube and 100 μL of methanol:acetonitrile (1:1, v/v) was added, vortexed for 1 min, centrifugated (14000 rpm) for 5 min, and 50 μL supernatant was taken, mixed with equal volume of water, and analysised after vortex mixing. The linear range of A55 is: 0.1-300 ng/mL for oral administration and 0.3-3000 ng/mL for intravenous injection.

Data set [4] can be described thus: Rat pharmacokinetics. On the set-up: AUC(0-t) / AUC(0-inf): concentration or dose not given beside the values. Conditions: in vivo, ip, i.p; for AUC(0-inf): read-out: AUCINF—obs; for MRT inf: read-out: MRTINF—obs.
Setting [5] is: HEK293 cells expressing α1A-AR, agonist phenylephrine 30 nM, calcium fluorescence, read-out: α1A-AR/IC50.
The mark [6] stands for this setting: abdominal (intraperitoneal) 30 mg/kg once a day for three weeks.
The mark [7] stands for this setting: oral (intragastric) 30 mg/kg once a day for three weeks.

As for `COc1ccc2[nH]c3c(c2c1)CC1c2cc(OC)c(OCc4ccc(F)cc4)cc2CCN1C3` (stereo not drawn) [Example C49, 3-((4-Fluorobenzyl)oxo)-2,12-dimethoxy-5,6,8,9,14,14a-hexahydroindole[3′,2′:4,5]pyridine[2,1-a]isoquinoline], the pIC50 in data set [1] (setting [5]) is 5.18; in data set [1] (statement in text on Table 2, read-out: antagonistic activity to α1A-AR), above 5.00. Further, the activity at 5 µM in the data set with HepG2 cells came to 194%.

`COc1ccc2[nH]c3c(c2c1)CC1c2cc(OCc4ccc(F)cc4)c(OC)cc2CCN1C3c1ccc(F)cc1` (stereo not drawn) [Example B5, 2-((4-fluorobenzyl)oxo)-8-(4-fluorophenyl)-3,12-dimethoxy-5,6,8,9,14,14a-hexahydroindole[3′,2′:4,5]pyridine[2,1-a]isoquinoline]: the pIC50 in data set [1] (setting [5]) was below 4.00. Also, in data set [2] (setting [6]), the CHOL turned out to be 14.92 mmol/L, the HDL-C was determined as 2.90 mmol/L, the LDL-C is 7.89 mmol/L and the TG is reported as 16.14 mmol/L. In data set [2] (setting [7]), the CHOL stood at 14.79 mmol/L, the HDL-C amounted to 3.99 mmol/L, the LDL-C turned out to be 7.66 mmol/L and the TG came to 11.94 mmol/L. Besides, in data set [2] (hyperlipidemia model), the “contents of cholesterol (CHOL), triglyceride (TG) and low density lipoprotein (LDL-C) in the blood” value is given as “significantly reduced”. In addition, the activity at 5 µM with HepG2 cells came out at 134%.

For orientation: half-life means the time in which the quantity being followed falls by half. The term AUC(0-t) denotes the area under the concentration-time curve up to a stated or last time point. The Cmax is the maximum level reached in the sampled fluid or tissue. Broadly, the Tmax is the time at which the peak concentration occurs. The term bioavailability denotes dose-corrected exposure relative to a reference, in per cent. The compound `COc1ccc2[nH]c3c(c2c1)CC1c2cc(OCc4ccc(C(F)(F)F)cc4)c(OC)cc2CCN1C3` (stereo not drawn) [Example C3, 3,12-dimethoxy-2-((4-(trifluoromethyl)benzyl)oxy)-5,6,8,9,14,14a-hexahydroindolo[3′,2′:4,5]pyridine[2,1-a]isoquinoline] gave a half-life in the data set “Rat pharmacokinetics [3]” (ip, i.p) of 18.5 h. Besides, in the data set “Rat pharmacokinetics [3]” (po, i.g), the AUC(0-t) is 3.96 µg·h/mL, the Cmax was found to be 297 ng/mL, the time to peak (Tmax) stood at 4 h and the bioavailability was 57.2%. Further, in the data set “Rat pharmacokinetics [3]” (po, i.g), the half-life was 6.53 h, the AUC(0-inf) was found to be 4.34 µg·h/mL and the MRT inf is 7.74 h. Moreover, the TC in data set [2] (Dose 30, oral) is on record as 25.08 ± 16.98 mmol/L. In data set [2] (Dose 100, oral), this compound yielded a TC of 21.17 ± 3.89 mmol/L. For the same compound, in the data set “Rat pharmacokinetics [4]”, the exposure AUC(0-t) amounted to 3.47 µg·h/mL, the AUC(0-inf) is 9.36 µg·h/mL and the MRT inf was found to be 15.3 h.

Turning to `COc1ccc2[nH]c3c(c2c1)CC1c2cc(OC)c(OCc4ccccc4)cc2CCN1C3c1ccc(F)cc1` (stereo not drawn) [Example B55, 3-(benzyloxy)-8-(4-fluorophenyl)-2,12-dimethoxy-5,6,8,9,14,14a-hexahydroindole[3′,2′:4,5]pyridine[2,1-a]isoquinoline], the pIC50 in data set [1] (setting [5]) was below 4.00. Moreover, the activity at 5 µM in the data set on HepG2 cells was 125%.

Take `COc1ccc2c(c1)c1c(n2CO)CN2CCc3cc(OCc4cccc(F)c4)c(OC)cc3C2C1` (stereo not drawn) [Example A61, (3-((3-fluorobenzyl)oxy)-2,12-dimethoxy-5,6,14,14a-tetrahydroindolo[3′,2′:4,5]pyridine[2,1-a]isoquinoline-9(8H)-yl)methanol]: in data set [1] (setting [5]), the pIC50 was 5.34. Besides, the TC in data set [2] (Dose 30, oral) was 37.11 ± 11.19 mmol/L; in data set [2] (Dose 100, oral), 22.57 ± 6.37 mmol/L. Further, the activity at 5 µM in the data set on HepG2 cells worked out at 165%.

With `COc1ccc2[nH]c3c(c2c1)CC1c2cc(OC)c(OCc4ccc(C(F)(F)F)cc4)cc2CCN1C3` (stereo not drawn) [Example C47, 2,12-dimethoxy-3-((4-(trifluoromethyl)benzyl)oxy)-5,6,8,9,14,14a-hexahydroindolo[3′,2′:4,5]pyridine[2,1-a]isoquinoline], the pIC50 in data set [1] (setting [5]) was below 4.00. Moreover, in the data set “Rat pharmacokinetics [3]” (ip, i.p), the highest concentration (Cmax) turned out to be 276 ng/mL, the time of peak concentration (Tmax) is 24 h and the half-life is 51.2 h. Besides, in “Rat pharmacokinetics [3]” (po, i.g), the AUC(0-t) stood at 9.25 µg·h/mL, the maximum concentration (Cmax) was 251 ng/mL, the Tmax amounted to 4 h and the bioavailability was found to be 31%. In “Rat pharmacokinetics [3]” (po, i.g), the half-life was 38.2 h, the AUC(0-inf) worked out at 564 µg·h/mL and the MRT inf is 56.1 h. In data set [2] (Dose 30, oral), this compound showed a TC of 19.73 ± 6.44 mmol/L. For the same compound, the activity at 5 µM in the data set with HepG2 cells was determined as 150%. Also, in the data set “Rat pharmacokinetics [4]”, the AUC(0-t) was 14.9 µg·h/mL, the AUC(0-inf) amounted to 1120 µg·h/mL and the MRT inf amounted to 66.4 h.

Turning to `COc1ccc2c(c1)c1c(n2CO)CN2CCc3cc(OCc4ccccc4F)c(OC)cc3C2C1` (stereo not drawn) [Example A63, (3-((2-fluorobenzyl)oxy)-2,12-dimethoxy-5,6,14,14a-tetrahydroindolo[3′,2′:4,5]pyridine[2,1-a]isoquinoline-9(8H)-yl)methanol], the pIC50 in data set [1] (setting [5]) is 4.24. The activity at 5 µM in the data set with HepG2 cells stood at 138%.
